Source: patent US20130317094A1, “USE OF ELLAGITANNINS AS INHIBITORS OF BACTERIAL QUORUM SENSING” (priority 2008, published 2013)

Legend:
pyoverdin = experiment: Pyoverdin production (supernatant fluorescence); assay type: cell-based, Pseudomonas aeruginosa; conditions: PAO1 grown with 40 μg/ml of sample
From the text: Pyoverdins function as siderophores essentially starving host tissues by competing with mammalian transferrin for iron. They also promote pathogenicity by stimulating bacterial growth (Cox & Adams, 1985), while auto-regulating themselves and the production of other toxins. Relative concentration of pyoverdin was based on fluorescence of the supernatant at an excitation wavelength of 405 nm and an emission wavelength of 465 nm (Gemini EM microplate reader). […] This is consistent with our previous data on C. erectus (Adonizio et al., 2008b).

C4-AHL (BHL) = experiment: AHL production, C4-AHL; assay type: cell-based, Pseudomonas aeruginosa; conditions: for AHL production C4-AHL: 40 μg/ml of sample
From the text: (§1) P. aeruginosa manufactures two main QS signaling molecules N-(3-oxododecanoyl)-L-homoserine lactone (OdDHL) and N-butanoyl-L-homoserine lactone (BHL) called autoinducers (Pearson et al., Proc. Natl. Acad. Sci. USA, 92:1490-1494, 1994). These molecules diffuse into the environment, and when they reach a putative threshold concentration, they activate the QS receptor genes.

[1] = system: QS genes (lasI, lasR, rhlI, rhlR); experiment: QS gene expression, summary over all tested QS genes; assay type: cell-based, Pseudomonas aeruginosa; conditions: 40 μg/ml
Method: (§2) Samples were tested at the following concentrations: 1 mg/ml crude extract of C. erectus, 40 μg/ml crude extract, 40 μg/ml vescalagin, or 40 μg/ml castalagin. These additions were compared to a media-only control for the reduction of QS.

C12-AHL (OdDHL) = experiment: AHL production, C12-AHL; assay type: cell-based, Pseudomonas aeruginosa; conditions: 40 μg/ml of sample
From the text: as §1

lasI = experiment: QS gene expression, promoter-lacZ fusion β-galactosidase assay, lasI; assay type: cell-based, Pseudomonas aeruginosa; conditions: 40 μg/ml of sample
Method: as §2

[2] = system: P. aeruginosa PAO1-derived biomonitor strains pPCS 1001 and pPCS 1002; experiment: Anti-QS agar well bioassay with lacZ biomonitor strains; assay type: cell-based, Pseudomonas aeruginosa; conditions: 10 μl aliquot per well
Method: These strains harbor lacZ fusions to the QS gene promoter regions enabling blue/white selection for QS activity. […] Briefly, LB agar plates were seeded with a lawn of one of the biomonitor strains and allowed to dry for 1 hour. Small wells were then cut and aspirated from the agar, and 10 μl aliquots of each fraction were pipetted into each well. Wells were checked at 18 h and 24 h for zones of QS inhibition.
Each fraction was pipetted into a small well in an agar plate seeded with one of these biomonitor strains and the appropriate reagents for visualization of lacZ activity.

LasB elastase = experiment: LasB elastolytic activity of culture supernatants (elastin Congo red); assay type: cell-based, Pseudomonas aeruginosa; conditions: for decrease in LasB activity compared to control: 40 ug/ml; for Elastase Activity: PAO1 grown with 40 μg/ml of sample
Method: LasB elastase is a zinc metalloprotease capable of affecting the host immune system and destroying biological tissue (Bever & Iglewski, 1988). The elastolytic activity of culture supernatants was determined using elastin Congo red (ECR; Sigma, St. Louis, Mo.) (Ohman et al., 1980). There was a significant decrease in LasB activity compared to that of the control when PAO1 was grown in the presence of C. erectus at 1 mg/ml (70% decrease) or 40 ug/ml (60% decrease) (Table 1). Purified vescalagin and castalagin also affected significant reductions in LasB activity, with decreases of 67% and 63%, respectively (Table 1).

rhlI = conditions: 40 μg/ml of sample
Method: as §2

rhlR = conditions: 40 μg/ml of sample
Method: as §2

lasR = conditions: 40 μg/ml of sample
Method: as §2

LasA protease = experiment: LasA staphylolytic assay of culture supernatants; assay type: cell-based, Pseudomonas aeruginosa; conditions: for LasA Activity: PAO1 grown with 40 μg/ml of sample; for decrease in LasA activity compared to control: crude extract printed 40 pg/ml, purified compounds 40 μg/ml
Method: LasA belongs to the p-lytic endopeptidase class of proteases (Kessler, 1995) and plays a major role in host tissue degradation (Kharazmi, 1989; Morihara & Homma, 1985). LasA protease activity was determined by measuring the ability of culture supernatants to lyse boiled S. aureus cells (Kong et al., Int. J. Med. Microbiol., 296:133-139, 2006). There was a significant decrease in LasA activity compared to that of the control when strain PAO1 was grown in the presence of C. erectus crude extract at 1 mg/ml (91% decrease), and a lesser effect at […] (26% decrease) (Table 1). Purified vescalagin and castalagin affected significant reductions in LasA activity as well, with decreases of 73% and 80%, respectively (Table 1).

LasB = conditions: P. putida grown in the presence of 30 μg/ml; cited from earlier work
P. putida = conditions: concentrations up to 30 μg/ml; cited from earlier work

Row | SMILES | Pyoverdin production (pyoverdin) | AHL production C4-AHL (C4-AHL (BHL)) | effect on expression of QS genes [1] | AHL production C12-AHL (C12-AHL (OdDHL)) | Gene Expression (measured via β-galactosidase activity of the lacZ fusion products) las1 (lasI) | anti-QS activity of HPLC fractions of Fraction A [2] | decrease in LasB activity compared to control (LasB elastase) | Elastase Activity (LasB elastase) | Gene Expression (measured via β-galactosidase activity of the lacZ fusion products) rhll (rhlI) | Gene Expression (measured via β-galactosidase activity of the lacZ fusion products) rhlR (rhlR) | Gene Expression (measured via β-galactosidase activity of the lacZ fusion products) lasR (lasR) | LasA Activity (LasA protease) | decrease in LasA activity compared to control (LasA protease) | reduction of BHL levels (C4-AHL (BHL); purified compound, 40 μg/ml) | decrease in LasB activity (LasB) | effect on growth (P. putida)
1 | O=C1OC[C@H]2OC(=O)c3cc(O)c(O)c(O)c3-c3c(O)c(O)c(O)c4c3C(=O)O[C@H]([C@H]3OC(=O)c5c-4c(O)c(O)c(O)c5[C@H]3O)[C@@H]2OC(=O)c2cc(O)c(O)c(O)c2-c2c1cc(O)c(O)c2O [Castalagin, castalagin] | 4207 ± 150 fluorescence (405/465 nm) per μg of protein | 0.703 ± 0.01 µM | reduced all QS gene levels save for rhlI | 1.389 ± 0.20 µM | 2465 ± 116 Milller Units | activity | 63% | 52.7 ± 9.0 absorbance at OD495 per μg of protein × 1000 | 4542 ± 199 Milller Units | 4904 ± 348 Milller Units | 2160 ± 509 Milller Units | 0.048 ± 0.003 reduction in OD600/hour per μg total protein | 80% |  |  | 
2 | O=C1OCC2OC(=O)c3cc(O)c(O)c(O)c3-c3c(O)c(O)c(O)c4c3C(=O)OC(C2OC(=O)c2cc(O)c(O)c(O)c2-c2c1cc(O)c(O)c2O)C1OC(=O)c2c-4c(O)c(O)c(O)c2C1O (centres unmarked) [Vescalagin, vescalagin] | 4226 ± 138 fluorescence (405/465 nm) per μg of protein | 0.489 ± 0.01 µM | reduced all QS gene levels including rhlI to a greater extent than castalagin | 1.227 ± 0.16 µM | 2049 ± 93 Milller Units | activity | 67% | 47.2 ± 6.8 absorbance at OD495 per μg of protein × 1000 | 3514 ± 306 Milller Units | 4129 ± 287 Milller Units | 1703 ± 297 Milller Units | 0.066 ± 0.008 reduction in OD600/hour per μg total protein | 73% | 21% |  | 
3 | O=c1oc2c(O)c(O)cc3c(=O)oc4c(O)c(O)cc1c4c23 [ellagic acid] |  |  |  |  |  |  |  |  |  |  |  |  |  |  | 40% | no effect
